According to patent US9763915B2, “Adjuvants in anti-cancer chemotherapy” (PharmOxaco SáRL, priority 2013, dated 2017):
Where “and” joins values, the source holds several entries; their conditions need not be identical. Identical values can stand only once.

Tests used:
[1] = tested on: human Burkitt's lymphoma cell line (Raji); assay: Annexin V apoptosis assay, Burkitt's lymphoma cell line Raji; format: cell-based; conditions: 48 hours, 25 μM alone
Protocol: (§1) Next the cells were cultivated in the same way, but in the combined presence of dasatinib (25 μM) and the individual trioxanes T16, T45, and T7 in concentrations of 1.0 and 10 μM (see Tables below). As mentioned above, the Annexin V apoptosis assay was used to detect the Annexin V protein on cells undergoing apoptosis. Dead cells (post-apoptopic) were determined by positivity toward propidium iodide. The percentages of apoptopic, post-apoptopic cells, and their total are shown for each test. […] Synergy is noted as moderate (*), high (**), or exceptionally high (***).
Human Burkitt's Lymphoma (Raji)

[2] = tested on: human follicular lymphoma cell line (DoHH2); assay: Annexin V apoptosis assay, follicular lymphoma cell line DoHH2; format: cell-based; conditions: DoHH2, 48 hours, 25 μM alone
Protocol: as §1
Human Follicular Lymphoma (DoHH2)

[3] = tested on: MCF-7 breast cancer cell line; assay: Annexin V apoptosis assay, poorly proliferating MCF-7 breast cancer cells; conditions: MCF-7, 48 hours, vehicle baseline 13-18%
Text: (§2) The same experimental set-up was also utilized to test the synergistic capacity of trioxane T59 with imatinib.
(§3) The test read-out was the Annexin V apoptosis assay kit from Becton-Dickinson, which detects the presence of the Annexin V protein on the surface of cells undergoing apoptosis and positivity toward propidium iodide for dead cells.

[4] = tested on: MDA-468 breast cancer cell line; assay: Annexin V apoptosis assay, fast proliferating MDA-468 breast cancer cells; conditions: MDA-468, 48 hours, vehicle baseline 13-18%
Text: as §2, §3

rats [5] = conditions: Brewer et al. 1994; cited from earlier work
dogs = conditions: Brewer et al. 1994; cited from earlier work
CD® rats = assay: Two-week toxicity study in CD rats; format: in vivo
Protocol: As a bellwether, the toxicity of trioxane T7 has been evaluated and compared with that of artemether in CD® rats following two weeks of oral administration (gavage) and intramuscular injection, respectively. Trioxane T7 was administered at doses of 0, 15, 30, and 60 mg/kg/day in Lipomul® emulsion, while artemether was dosed at 0, 10, 20, and 40 mg/kg/day.

rats [6] = assay: Further testing in a group of rats (mortality); conditions: 40 mg/kg/day

SMILES: Cc1nc(Nc2ncc(C(=O)Nc3c(C)cccc3Cl)s2)cc(N2CCN(CCO)CC2)n1 [Dasatinib, dasatinib]
- Apoptopic Cells, in % [1]: 7.9%
- Post-apoptopic Cells, in % [1]: 15.18%
- Total Dead Cells, in % ([1]; vehicle baseline 13-18%): 23.15%
- Apoptopic Cells, in % [2]: 4.58%
- Post-apoptopic Cells, in % [2]: 11.76%
- Total Dead Cells, in % ([2]; vehicle baseline 13-18%): 16.34%

SMILES: Cc1ccc(NC(=O)c2ccc(CN3CCN(C)CC3)cc2)cc1Nc1nccc(-c2cccnc2)n1 [Imatinib, imatinib]
- percentage of dead cells (dead+apoptotic) ([3]; 10 μM alone): 14.05% and 14.15%
- percentage of dead cells (dead+apoptotic) ([4]; 10 μM alone): 13.60% and 13.16%

SMILES: Oc1ccc(C=Cc2cc(O)cc(O)c2)cc1 [Resveratrol, resveratrol]
- percentage of dead cells (dead+apoptotic) ([3]; 1 μM alone): 16.05%
- percentage of dead cells (dead+apoptotic) ([4]; 1 μM alone): 11.30%

SMILES: CO[C@H]1O[C@@H]2O[C@@]3(C)CC[C@H]4[C@H](C)CC[C@@H]([C@H]1C)[C@@]24OO3 [artemether]
- reported toxicity (rats [5]): neurotoxicity
- reported toxicity (dogs): neurotoxicity
- toxic effects (CD® rats; two weeks intramuscular injection, 10, 20, 40 mg/kg/day): CNS excitability, neuronal chromatolysis, and gliosis in the brain stem
- toxic effects at mid-dose (CD® rats; two weeks intramuscular injection, mid-dose (of 10, 20, 40 mg/kg/day)): neurotoxic manifestations were observed, including hematoxicity and hepatotoxicity
- mortality (rats [6]): killed most of the rats
